According to the NIST ThermoML archive (doi:10.1016/j.tca.2017.06.023):

Tests used:
[1] = xn = mol fraction of the nth substance listed; conditions: 100 kPa, Liquid; for viscosity: Capillary tube (Ostwald / Ubbelohde) method; for speed of sound: Frequency=3 MHz, Sing-around technique in a fixed-path interferometer; for mass density: Vibrating tube method
[2] = refractive index (Na D-line) (dimensionless); xn = mol fraction of the nth substance listed; conditions: 100 kPa, Liquid, Standard Abbe refractometry

CC(=O)N(C)C [N,N-dimethylethanamide] + CC(C)O
Conditions | mass density, [1] [kg/m3] | refractive index, [2] | speed of sound, [1] [m/s] | viscosity, [1] [mPa·s]
283.15 K, x1 = 0.0551 | 803.7 | 1.38572 | 1214.1 | 2.752
283.15 K, x1 = 0.1091 | 813.5 | 1.38973 | 1234.9 | 2.354
283.15 K, x1 = 0.2113 | 831.42 | 1.39698 | 1271.8 | 1.896
283.15 K, x1 = 0.3066 | 847.5 | 1.40342 | 1303.6 | 1.643
283.15 K, x1 = 0.4084 | 864.09 | 1.40997 | 1336.4 | 1.476
283.15 K, x1 = 0.5049 | 879.33 | 1.4159 | 1366.7 | 1.392
283.15 K, x1 = 0.6056 | 894.73 | 1.42182 | 1398.1 | 1.305
283.15 K, x1 = 0.7028 | 909.13 | 1.42729 | 1427.9 | 1.272
283.15 K, x1 = 0.8024 | 923.39 | 1.43267 | 1458.5 | 1.246
283.15 K, x1 = 0.8956 | 936.27 | 1.43751 | 1486.3 | 1.213
283.15 K, x1 = 0.9464 | 943.08 | 1.44007 | 1501.5 | 1.205
283.15 K, x1 = 1 | 950.13 | 1.44273 | 1516.8 | 1.168
298.15 K, x1 = 0.0551 | 791.24 | 1.37924 | 1160.6 | 1.793
298.15 K, x1 = 0.1091 | 800.93 | 1.38322 | 1180.6 | 1.598
298.15 K, x1 = 0.2113 | 818.64 | 1.39042 | 1215.9 | 1.355
298.15 K, x1 = 0.3066 | 834.52 | 1.3968 | 1247.4 | 1.214
298.15 K, x1 = 0.4084 | 850.94 | 1.40331 | 1279.7 | 1.117
298.15 K, x1 = 0.5049 | 866.02 | 1.40919 | 1309.3 | 1.057
298.15 K, x1 = 0.6056 | 881.3 | 1.41506 | 1338.8 | 1.017
298.15 K, x1 = 0.7028 | 895.59 | 1.42049 | 1369.3 | 0.993
298.15 K, x1 = 0.8024 | 909.75 | 1.42581 | 1399.3 | 0.977
298.15 K, x1 = 0.8956 | 922.53 | 1.43061 | 1426.5 | 0.956
298.15 K, x1 = 0.9464 | 929.3 | 1.43317 | 1441.3 | 0.949
298.15 K, x1 = 1 | 936.29 | 1.43579 | 1453.7 | 0.93
313.15 K, x1 = 0.0551 | 778.1 | 1.37249 | 1107.6 | 1.223
313.15 K, x1 = 0.1091 | 787.72 | 1.37646 | 1127.3 | 1.129
313.15 K, x1 = 0.2113 | 805.29 | 1.38365 | 1162.2 | 1.008
313.15 K, x1 = 0.3066 | 821.08 | 1.39004 | 1193.5 | 0.933
313.15 K, x1 = 0.4084 | 837.39 | 1.39653 | 1225.2 | 0.879
313.15 K, x1 = 0.5049 | 852.41 | 1.40242 | 1254.2 | 0.849
313.15 K, x1 = 0.6056 | 867.62 | 1.40827 | 1282.9 | 0.828
313.15 K, x1 = 0.7028 | 881.85 | 1.4137 | 1313.2 | 0.809
313.15 K, x1 = 0.8024 | 895.96 | 1.41903 | 1342.1 | 0.795
313.15 K, x1 = 0.8956 | 908.71 | 1.42383 | 1368.5 | 0.779
313.15 K, x1 = 0.9464 | 915.46 | 1.42638 | 1382.5 | 0.772
313.15 K, x1 = 1 | 922.43 | 1.42901 | 1393.3 | 0.764

CC(=O)N(C)C [N,N-dimethylethanamide] + CCC(C)O
Conditions | mass density, [1] [kg/m3] | refractive index, [2] | speed of sound, [1] [m/s] | viscosity, [1] [mPa·s]
283.15 K, x1 = 0.062 | 823.15 | 1.40382 | 1280.8 | 4.37
283.15 K, x1 = 0.0926 | 827.08 | 1.40505 | 1288 | 3.888
283.15 K, x1 = 0.2101 | 842.13 | 1.4098 | 1314.5 | 2.795
283.15 K, x1 = 0.3084 | 854.75 | 1.41377 | 1337 | 2.363
283.15 K, x1 = 0.4084 | 867.81 | 1.41785 | 1360.1 | 2.043
283.15 K, x1 = 0.5009 | 880.22 | 1.42168 | 1382.3 | 1.833
283.15 K, x1 = 0.6002 | 893.87 | 1.42583 | 1407.2 | 1.662
283.15 K, x1 = 0.7001 | 907.96 | 1.43002 | 1433 | 1.518
283.15 K, x1 = 0.8035 | 922.69 | 1.43437 | 1461.3 | 1.418
283.15 K, x1 = 0.9004 | 936.39 | 1.43847 | 1488.8 | 1.318
283.15 K, x1 = 0.9572 | 944.31 | 1.44089 | 1505 | 1.258
283.15 K, x1 = 1 | 950.13 | 1.44273 | 1516.8 | 1.168
298.15 K, x1 = 0.062 | 810.77 | 1.39766 | 1226.5 | 2.545
298.15 K, x1 = 0.0926 | 814.69 | 1.39889 | 1233.5 | 2.345
298.15 K, x1 = 0.2101 | 829.59 | 1.40356 | 1259.8 | 1.839
298.15 K, x1 = 0.3084 | 842.09 | 1.40746 | 1281.4 | 1.593
298.15 K, x1 = 0.4084 | 855.06 | 1.41148 | 1303.8 | 1.427
298.15 K, x1 = 0.5009 | 867.31 | 1.41524 | 1324.9 | 1.316
298.15 K, x1 = 0.6002 | 880.82 | 1.41929 | 1349 | 1.233
298.15 K, x1 = 0.7001 | 894.7 | 1.42339 | 1374.8 | 1.151
298.15 K, x1 = 0.8035 | 909.23 | 1.42765 | 1402.4 | 1.066
298.15 K, x1 = 0.9004 | 922.74 | 1.43165 | 1428.8 | 1.02
298.15 K, x1 = 0.9572 | 930.54 | 1.43402 | 1443.3 | 0.967
298.15 K, x1 = 1 | 936.29 | 1.43579 | 1453.7 | 0.93
313.15 K, x1 = 0.062 | 797.87 | 1.39127 | 1172.2 | 1.587
313.15 K, x1 = 0.0926 | 801.76 | 1.39248 | 1179.1 | 1.501
313.15 K, x1 = 0.2101 | 816.61 | 1.39714 | 1205 | 1.274
313.15 K, x1 = 0.3084 | 829.07 | 1.40103 | 1226.2 | 1.146
313.15 K, x1 = 0.4084 | 841.93 | 1.40501 | 1247.8 | 1.048
313.15 K, x1 = 0.5009 | 854.12 | 1.40873 | 1268.8 | 0.979
313.15 K, x1 = 0.6002 | 867.53 | 1.41274 | 1292.5 | 0.927
313.15 K, x1 = 0.7001 | 881.27 | 1.4168 | 1317.7 | 0.888
313.15 K, x1 = 0.8035 | 895.63 | 1.42098 | 1345.2 | 0.857
313.15 K, x1 = 0.9004 | 909.02 | 1.42492 | 1370.2 | 0.819
313.15 K, x1 = 0.9572 | 916.72 | 1.42725 | 1384 | 0.791
313.15 K, x1 = 1 | 922.43 | 1.42901 | 1393.3 | 0.764
